We go through 13 compounds from patent US20220380374A1, “1,4-DIHYDROBENZO[D]PYRAZOLO[3,4-F][1,3]DIAZEPINE DERIVATIVES AND RELATED COMPOUNDS AS LRRK2, NUAK1 AND/OR TYK2 KINASE MODULATORS FOR THE TREATMENT OF E.G. AUTOIMMUNE DISEASE” (Origenis GMBH, priority 2019, published 2022).

Test [1] addresses T1, wt human TYK2, catalytic site (Homo sapiens, UniProt P29597).
T1 construct: 2 nM wt human TYK2, catalytic site (SignalChem/CAN); purchased SignalChem/CAN
T1 sequence (P29597 897-1176 limits assumed): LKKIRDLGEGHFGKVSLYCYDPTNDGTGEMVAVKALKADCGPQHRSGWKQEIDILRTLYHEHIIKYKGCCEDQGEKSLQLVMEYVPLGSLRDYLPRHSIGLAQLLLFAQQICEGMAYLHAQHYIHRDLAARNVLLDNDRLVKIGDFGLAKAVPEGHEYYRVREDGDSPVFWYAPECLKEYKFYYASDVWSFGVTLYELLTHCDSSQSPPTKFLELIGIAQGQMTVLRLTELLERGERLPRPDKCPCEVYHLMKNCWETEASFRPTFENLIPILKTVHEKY
Put plainly: HTRF KinEASE assay, TYK2. In kind it is biochemical. Conditions: 1 μM ATP; read-out: IC50, inhibitory activity toward TYK2. Put shortly: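 2 nM wt human TYK2 catalytic domain with 1 μM biotinylated TK substrate and 1 μM ATP in 1× kinase buffer was incubated ≥30 min at room temperature. Antibody and streptavidin-XL665 were added, and HTRF emission ratios were read after 60 min.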

The target of test [2] is T2, wt human NUAK1, full length (Homo sapiens, UniProt O60285).
T2 construct: 8 nM wt human NUAK1, full length (ThermoFisher/USA); purchased ThermoFisher/USA
T2 sequence (O60285 1-661): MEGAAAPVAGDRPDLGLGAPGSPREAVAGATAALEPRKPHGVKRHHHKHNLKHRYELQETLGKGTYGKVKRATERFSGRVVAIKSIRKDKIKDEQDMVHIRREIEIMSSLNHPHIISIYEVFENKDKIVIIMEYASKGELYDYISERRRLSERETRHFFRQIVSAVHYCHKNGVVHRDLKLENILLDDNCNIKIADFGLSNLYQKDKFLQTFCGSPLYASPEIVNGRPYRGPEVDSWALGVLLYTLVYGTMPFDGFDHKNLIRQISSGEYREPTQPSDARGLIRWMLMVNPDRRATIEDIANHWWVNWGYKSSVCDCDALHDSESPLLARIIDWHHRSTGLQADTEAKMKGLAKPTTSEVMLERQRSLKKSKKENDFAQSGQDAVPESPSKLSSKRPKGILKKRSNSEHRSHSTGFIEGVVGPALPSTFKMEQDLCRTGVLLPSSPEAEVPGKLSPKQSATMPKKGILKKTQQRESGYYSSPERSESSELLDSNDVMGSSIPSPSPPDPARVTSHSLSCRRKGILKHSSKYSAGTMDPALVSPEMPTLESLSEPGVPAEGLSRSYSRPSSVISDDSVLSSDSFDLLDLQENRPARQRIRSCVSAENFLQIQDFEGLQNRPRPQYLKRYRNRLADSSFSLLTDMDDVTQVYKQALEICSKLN
Briefly: TR-FRET LanthaScreen Eu Kinase Binding Assay, NUAK1. The note with it: 5 nM Kinase Tracer 236; read-out: IC50, inhibitory activity toward NUAK1. In short, it runs like this: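 TR-FRET tracer-displacement binding with 8 nM full-length wild-type human NUAK1, 2 nM Eu-anti-His antibody and 5 nM Kinase Tracer 236 in 1× Kinase Buffer A (final). Compound, kinase/antibody and tracer incubated 1 h at room temperature; emission ratios analysed per kit protocol.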
Background: Time-resolved FRET reads energy transfer from a long-lived donor to a nearby acceptor.

The term IC50 denotes the concentration that gives 50% inhibition. For `COC(=O)Nc1ccc2c(c1)-c1[nH]ncc1NC(c1c(F)cccc1F)=N2` [Compound 165, methyl(5-(2,6-difluorophenyl)-1,4-dihydrobenzo[d]pyrazolo[3,4-f][1,3]diazepin-9-yl)carbamate], the IC50 in test [1] was 100 to 1000 nM; in test [2] it was below 10 nM.

Take `Cc1cc(F)c2c(c1)-c1[nH]nc(Cl)c1NC(c1c(F)cccc1F)=N2` [Compound 166, 3-chloro-5-(2,6-difluorophenyl)-7-fluoro-9-methyl-1,4-dihydrobenzo[d]pyrazolo[3,4-f][1,3]diazepine]: the figures for the concentration for half-maximal inhibition (IC50) in test [1] and in test [2] were 100 to 1000 nM and 10 to 100 nM, respectively.

Consider `CCc1cc(F)c2c(c1)-c1[nH]nc(Cl)c1NC(c1c(F)cccc1F)=N2` [Compound 168, 3-chloro-5-(2,6-difluorophenyl)-9-ethyl-7-fluoro-1,4-dihydrobenzo[d]pyrazolo[3,4-f][1,3]diazepine], for which the IC50 in test [1] was 100 to 1000 nM; in test [2] it was 10 to 100 nM.

For the compound `COc1ccc2c(c1F)N=C(c1c(F)cccc1F)Nc1cn[nH]c1-2` [Compound 169, 5-(2,6-difluorophenyl)-7-fluoro-8-methoxy-1,4-dihydrobenzo[d]pyrazolo[3,4-f][1,3]diazepine], the IC50 in test [1] and in test [2] was 10 to 100 nM each time.

Consider `Fc1cccc(F)c1C1=Nc2c(Cl)n[nH]c2-c2cc(Cl)ncc2N1` [Compound 171, 3,9-dichloro-5-(2,6-difluorophenyl)-1,6-dihydropyrazolo[4,3-d]pyrido[4,3-f][1,3]diazepine], for which the IC50 in test [1] and in test [2] was 10 to 100 nM throughout.

For `Cc1ccc2c(c1)-c1[nH]ncc1N=C(c1c(C)cccc1F)N2` [Compound 172, 5-(2-fluoro-6-methylphenyl)-9-methyl-1,6-dihydrobenzo[d]pyrazolo[3,4-f][1,3]diazepine], the IC50 in test [1] and in test [2] was 100 to 1000 nM each time.

Take `Cc1ccc2c(c1)-c1[nH]ncc1NC(c1c(F)ccc(F)c1F)=N2` [Compound 182, 9-methyl-5-(2,3,6-trifluorophenyl)-1,4-dihydrobenzo[d]pyrazolo [3,4-f][1,3]diazepine]: the IC50 in test [1] lay in the range of 100 to 1000 nM; in test [2] it was 10 to 100 nM.

Take `Cc1ccc2c(c1)-c1[nH]ncc1NC(c1c(F)ccc(Br)c1Cl)=N2` [Compound 183, 5-(3-bromo-2-chloro-6-fluorophenyl)-9-methyl-1,4-dihydrobenzo [d]pyrazolo[3,4-f][1,3]diazepine]: the IC50 in test [1] is 100 to 1000 nM; in test [2] it was 10 to 100 nM.

Consider `Cc1ccc2c(c1)-c1[nH]ncc1NC(c1c(Cl)ccc(Br)c1F)=N2` [Compound 184, 5-(3-bromo-6-chloro-2-fluorophenyl)-9-methyl-1,4-dihydrobenzo [d]pyrazolo[3,4-f][1,3]diazepine], for which the IC50 in test [1] is 100 to 1000 nM; in test [2] it was 10 to 100 nM.

`Cc1ccc2c(c1)-c1[nH]ncc1NC(c1c(Cl)ccc(F)c1F)=N2` [Compound 186, 5-(6-chloro-2,3-difluorophenyl)-9-methyl-1,4-dihydrobenzo[d]pyrazolo[3,4-f][1,3]diazepine]: the half-inhibitory concentration (IC50) fell in the range of 100 to 1000 nM in test [1] and 10 to 100 nM in test [2].

As to `Fc1cccc(Cl)c1C1=Nc2cnc(Cl)cc2-c2n[nH]cc2N1` [Compound 190, 9-chloro-5-(2-chloro-6-fluorophenyl)-2,4-dihydropyrazolo[4,3-d]pyrido[4,3-f][1,3]diazepine], the IC50 in test [1] and in test [2] was 10 to 100 nM in each case.

Take `Fc1cc(F)c(C2=Nc3ccc(Cl)cc3-c3n[nH]cc3N2)c(F)c1` [Compound 194, 9-chloro-5-(2,4,6-trifluorophenyl)-2,4-dihydrobenzo[d]pyrazolo[3,4-f][1,3]diazepine]: the results for the IC50 in test [1] and in test [2] were 100 to 1000 nM and 10 to 100 nM, respectively.

Take `Fc1cccc(F)c1C1=Nc2cnc(OC(F)F)cc2-c2n[nH]cc2N1` [Compound 197, 9-(difluoromethoxy)-5-(2,6-difluorophenyl)-2,4-dihydropyrazolo[4,3-d]pyrido[4,3-f][1,3]diazepine]: the concentration for half-maximal inhibition (IC50) in test [1] and in test [2] was 10 to 100 nM each time.
